Data as given in PubChem BioAssay AID1963972 (Molecular Pharmacology Branch, DTP, NCI, 2024).

Tested on: 945468-187-T-J2-PDC spheroids viability
Test: Anticancer human tumor 945468-187-T-J2-PDC patient-derived rectal carcinoma cell line growth inhibition [PI3K]
Settings: spheroids with HUVEC and MSC; for IC50: curve of first compound; for viability, T/C: stronger effect = lower value
From the text: Combinatorial screen of targeted agents with the PI3K inhibitors inavolisib, alpelisib, duvelisib, and copanlisib in multi-cell type tumor spheroids
A high-throughput screen of multi-cell type tumor spheroids was designed to identify active combinations of targeted small molecules and PI3K pathway inhibitors. Complex spheroids include a stromal component modeled by human endothelial cells (HUVEC) and fibroblasts modeled by human mesenchymal stem cells (MSCs). The concentration ranges selected for each drug and investigational agent were based upon clinically achievable concentrations if the clinical Cmax of the agent was known.
Compounds. The drugs and investigational agents: inavolisib (NSC800729), alpelisib (NSC765974), duvelisib (NSC772469), copanlisib (NSC816437), ipatasertib (NSC767898), afuresertib (NSC778305), talazoparib (NSC767125), sapanisertib (NSC764658), selumetinib (NSC741078), tovorafenib (DAY101, NSC766906), vemurafenib (NSC761431), ravoxertinib (NSC781343), sotorasib (NSC818433), MRTX1133 (NSC 836407), abemaciclib (NSC 768073), palbociclib (NSC758247), venetoclax (NSC 766270), SY5609 (NSC837396), enzalutamide (NSC755605), and darolutamide (NSC825331), were obtained from the National Cancer Institute (NCI) Developmental Therapeutics Program Chemical Repository. The FDA-approved anticancer drug set is available from the NCI Developmental Therapeutics Program. […] The stock solutions were prepared in dimethyl sulfoxide (DMSO, Sigma-Aldrich, St. Louis, MO, cat. D2650) at 800-fold the tested concentration and stored at -70 degrees C prior to their use. All drugs and investigational agents were tested over a range starting from a high concentration at or near the clinical Cmax and decreasing in half-log increments. If the clinical Cmax for an agent had not been determined, the highest concentration tested was 10 microM.
Cell Culture. All cells were maintained in an incubator at 37 degrees C and 5% CO2 with 95% humidity. The PDC lines were cultured according to standard operating procedures established by the NCI PDMR (https://pdmr.cancer.gov/sops/default.htm). All PDCs were thawed and cultured in Matrigel-coated flasks prepared with a working solution of 1X Ham's F-12 nutrient mix, without supplementation (Invitrogen, Waltham, MA, cat. 11765054), 100 U/mL penicillin-streptomycin (Invitrogen, cat. 15140122), and 2.5% Matrigel (Corning Inc., Corning, NY, cat. 354248) for the first three passages. The 354836-022-R-J1-PDC, 475296-252-R-J1-PDC, and 997726-040-R-J2-PDC lines were cultured in 6A media, which includes advanced DMEM/F-12 (Thermo Fisher Scientific, cat. 12634028), 10 mM HEPES (Thermo Fisher Scientific, cat. 15630080), 1X GlutaMAX supplement (Thermo Fisher Scientific, cat. 35050061), 0.1 mg/mL primocin (InvivoGen, San Diego, CA, cat. ant-pm-2), 10% defined fetal bovine serum, heat inactivated (HyClone Laboratories Inc., Logan, UT, cat. SH30070.03HI), 50% L-WRN conditioned media (ATCC, cat. CRL-3276), 1.25 mM N-Acetyl-L-cysteine (Sigma-Aldrich, cat. A9165), 10 mM nicotinamide (Sigma-Aldrich, cat. N0636), 1X B-27 supplement (Thermo Fisher Scientific, cat. 17504044), 1X N-2 supplement (Thermo Fisher Scientific, cat. 17502048), and 10 microM Y-27632 dihydrochloride (Tocris Bioscience, Bristol, United Kingdom, cat. 1254). The 624824-186-R-J2-PDC line was cultured in 6C/Colon 1B media, which includes all 6A media components plus 50 ng/mL human EGF recombinant protein (Thermo Fisher Scientific, cat. PHG0311). […]

[1] = second compound 0.0316 µM, first compound 0.0316 µM
[2] = second compound 0.0316 µM, first compound 0.1 µM
[3] = second compound 0.1 µM, first compound 0.0316 µM
[4] = second compound 0.1 µM, first compound 0.1 µM
[5] = second compound 0.316 µM, first compound 0.0316 µM
[6] = second compound 0.316 µM, first compound 0.1 µM
[7] = second compound 1 µM, first compound 0.0316 µM
[8] = second compound 1 µM, first compound 0.1 µM
[9] = second compound 3.16 µM, first compound 0.0316 µM
[10] = second compound 3.16 µM, first compound 0.1 µM
[11] = second compound 10 µM, first compound 0.0316 µM
[12] = second compound 10 µM, first compound 0.1 µM
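Further: spheroids exposed to compounds for seven days before reading.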

For CNC(=O)c1ccc(N2C(=S)N(c3ccc(C#N)c(C(F)(F)F)c3)C(=O)C2(C)C)cc1F + CC(Nc1ncnc2nc[nH]c12)c1cc2cccc(Cl)c2c(=O)n1-c1ccccc1, the IC50 (second compound 0.0316 µM) was over 10 µM, the IC50 (second compound 0.1 µM) was over 10 µM and the IC50 (second compound 0.316 µM) was over 10 µM. It also gave an IC50 (second compound 1 µM) of over 10 µM, an IC50 (second compound 3.16 µM) of over 10 µM and an IC50 (second compound 10 µM) of over 10 µM. For the same molecule, the viability, T/C [1] was 111%, the viability, T/C [2] was 93.6% and the viability, T/C (second compound 0.0316 µM, first compound 0.316 µM) was 96.3%. For the same molecule, the viability, T/C (second compound 0.0316 µM, first compound 1 µM) was 85.3%, the viability, T/C (second compound 0.0316 µM, first compound 3.16 µM) was 85.1% and the viability, T/C (second compound 0.0316 µM, first compound 10 µM) was 75.7%. The viability, T/C [3] was 92.6%, the viability, T/C [4] was 92.5% and the viability, T/C (second compound 0.1 µM, first compound 0.316 µM) was 91.1%. The viability, T/C (second compound 0.1 µM, first compound 1 µM) was 91%, the viability, T/C (second compound 0.1 µM, first compound 3.16 µM) was 106% and the viability, T/C (second compound 0.1 µM, first compound 10 µM) was 88.3%. For the same molecule, the viability, T/C [5] was 138%, the viability, T/C [6] was 100% and the viability, T/C (second compound 0.316 µM, first compound 0.316 µM) was 95.7%. For the same molecule, the viability, T/C (second compound 0.316 µM, first compound 1 µM) was 111%, the viability, T/C (second compound 0.316 µM, first compound 3.16 µM) was 101% and the viability, T/C (second compound 0.316 µM, first compound 10 µM) was 89.5%. The viability, T/C [7] was 95.5%, the viability, T/C [8] was 87% and the viability, T/C (second compound 1 µM, first compound 0.316 µM) was 100%. The viability, T/C (second compound 1 µM, first compound 1 µM) was 105%, the viability, T/C (second compound 1 µM, first compound 3.16 µM) was 104% and the viability, T/C (second compound 1 µM, first compound 10 µM) was 114%. For the same molecule, the viability, T/C [9] was 111%, the viability, T/C [10] was 93.9% and the viability, T/C (second compound 3.16 µM, first compound 0.316 µM) was 89.7%. The viability, T/C (second compound 3.16 µM, first compound 1 µM) was 106%, the viability, T/C (second compound 3.16 µM, first compound 3.16 µM) was 105% and the viability, T/C (second compound 3.16 µM, first compound 10 µM) was 93.3%. It also gave a viability, T/C [11] of 89.4%, a viability, T/C [12] of 108% and a viability, T/C (second compound 10 µM, first compound 0.316 µM) of 101%. The viability, T/C (second compound 10 µM, first compound 1 µM) was 102%, the viability, T/C (second compound 10 µM, first compound 3.16 µM) was 113% and the viability, T/C (second compound 10 µM, first compound 10 µM) was 90.5%.
With Cn1ncnc1[C@H]1c2n[nH]c(=O)c3cc(F)cc(c23)N[C@@H]1c1ccc(F)cc1 + Cc1nc(NC(=O)N2CCCC2C(N)=O)sc1-c1ccnc(C(C)(C)C(F)(F)F)c1 the IC50 (second compound 0.0316 µM) was over 0.1 µM, the IC50 (second compound 0.1 µM) was over 0.1 µM and the IC50 (second compound 0.316 µM) was over 0.1 µM. It also gave an IC50 (second compound 1 µM) of over 0.1 µM, an IC50 (second compound 3.16 µM) of over 0.1 µM and an IC50 (second compound 10 µM) of over 0.1 µM. It also gave a viability, T/C (second compound 0.0316 µM, first compound 0.000316 µM) of 103%, a viability, T/C (second compound 0.0316 µM, first compound 0.001 µM) of 83.4% and a viability, T/C (second compound 0.0316 µM, first compound 0.00316 µM) of 130%. It also gave a viability, T/C (second compound 0.0316 µM, first compound 0.01 µM) of 100%, a viability, T/C [1] of 91.6% and a viability, T/C [2] of 130%. The viability, T/C (second compound 0.1 µM, first compound 0.000316 µM) was 106%, the viability, T/C (second compound 0.1 µM, first compound 0.001 µM) was 109% and the viability, T/C (second compound 0.1 µM, first compound 0.00316 µM) was 129%. For the same molecule, the viability, T/C (second compound 0.1 µM, first compound 0.01 µM) was 91.2%, the viability, T/C [3] was 117% and the viability, T/C [4] was 131%. It also gave a viability, T/C (second compound 0.316 µM, first compound 0.000316 µM) of 110%, a viability, T/C (second compound 0.316 µM, first compound 0.001 µM) of 119% and a viability, T/C (second compound 0.316 µM, first compound 0.00316 µM) of 89.4%. For the same molecule, the viability, T/C (second compound 0.316 µM, first compound 0.01 µM) was 82.2%, the viability, T/C [5] was 117% and the viability, T/C [6] was 117%. It also gave a viability, T/C (second compound 1 µM, first compound 0.000316 µM) of 108%, a viability, T/C (second compound 1 µM, first compound 0.001 µM) of 104% and a viability, T/C (second compound 1 µM, first compound 0.00316 µM) of 103%. It also gave a viability, T/C (second compound 1 µM, first compound 0.01 µM) of 119%, a viability, T/C [7] of 134% and a viability, T/C [8] of 89.3%. For the same molecule, the viability, T/C (second compound 3.16 µM, first compound 0.000316 µM) was 94%, the viability, T/C (second compound 3.16 µM, first compound 0.001 µM) was 97.1% and the viability, T/C (second compound 3.16 µM, first compound 0.00316 µM) was 86.5%. For the same molecule, the viability, T/C (second compound 3.16 µM, first compound 0.01 µM) was 90.2%, the viability, T/C [9] was 90.4% and the viability, T/C [10] was 92%. The viability, T/C (second compound 10 µM, first compound 0.000316 µM) was 99.3%, the viability, T/C (second compound 10 µM, first compound 0.001 µM) was 85.5% and the viability, T/C (second compound 10 µM, first compound 0.00316 µM) was 88.6%. For the same molecule, the viability, T/C (second compound 10 µM, first compound 0.01 µM) was 77.8%, the viability, T/C [11] was 91.5% and the viability, T/C [12] was 89.8%.
